Test results: PubChem BioAssay (NCI)
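A five-concentration, 48-hour dose response in 96-well plates underlies each endpoint, interpolated linearly between surrounding concentrations. TGI marks complete inhibition of growth.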

Tests used:
Assay in all cases: growth of human tumour cells (NCI), 48 h
786-0 renal = system: 786-0 renal
A498 renal = system: A498 renal
A549 NSCLC = system: A549 NSCLC
ACHN renal = system: ACHN renal
BT-549 breast = system: BT-549 breast
CAKI-1 renal = system: CAKI-1 renal
CCRF-CEM leukemia = system: CCRF-CEM leukemia
COLO 205 colon = system: COLO 205 colon
DU-145 prostate = system: DU-145 prostate
EKVX NSCLC = system: EKVX NSCLC
HCC-2998 colon = system: HCC-2998 colon
HCT-116 colon = system: HCT-116 colon
HCT-15 colon = system: HCT-15 colon
HOP-62 NSCLC = system: HOP-62 NSCLC
HT29 colon = system: HT29 colon
K-562 leukemia = system: K-562 leukemia
KM12 colon = system: KM12 colon
M14 melanoma = system: M14 melanoma
MALME-3M melanoma = system: MALME-3M melanoma
MCF7 breast = system: MCF7 breast
MDA-MB-231 breast = system: MDA-MB-231 breast
MDA-MB-435 = system: MDA-MB-435
MDA-N = system: MDA-N
MOLT-4 leukemia = system: MOLT-4 leukemia
NCI-H226 lung = system: NCI-H226 lung
NCI-H23 lung = system: NCI-H23 lung
NCI-H460 lung = system: NCI-H460 lung
NCI/ADR-RES ovarian = system: NCI/ADR-RES ovarian
OVCAR-3 ovarian = system: OVCAR-3 ovarian
OVCAR-4 ovarian = system: OVCAR-4 ovarian
OVCAR-5 ovarian = system: OVCAR-5 ovarian
OVCAR-8 ovarian = system: OVCAR-8 ovarian
PC-3 prostate = system: PC-3 prostate
RPMI-8226 leukemia = system: RPMI-8226 leukemia
RXF 393 renal = system: RXF 393 renal
SF-268 CNS = system: SF-268 CNS
SF-295 CNS = system: SF-295 CNS
SF-539 CNS = system: SF-539 CNS
SK-MEL-2 melanoma = system: SK-MEL-2 melanoma
SK-MEL-28 melanoma = system: SK-MEL-28 melanoma
SK-OV-3 ovarian = system: SK-OV-3 ovarian
SN12C renal = system: SN12C renal
SNB-19 CNS = system: SNB-19 CNS
SNB-75 CNS = system: SNB-75 CNS
SW-620 colon = system: SW-620 colon
T-47D breast = system: T-47D breast
U251 CNS = system: U251 CNS
UACC-257 melanoma = system: UACC-257 melanoma
UACC-62 melanoma = system: UACC-62 melanoma
UO-31 renal = system: UO-31 renal
HL-60(TB) leukemia = system: HL-60(TB) leukemia
HOP-92 NSCLC = system: HOP-92 NSCLC
LOX IMVI melanoma = system: LOX IMVI melanoma
SK-MEL-5 melanoma = system: SK-MEL-5 melanoma
IGROV1 ovarian = system: IGROV1 ovarian
NCI-H522 lung = system: NCI-H522 lung
SR leukemia = system: SR leukemia
TK-10 renal = system: TK-10 renal

`CC(C)(C)OC/C=C(\Br)CO` gave a TGI (786-0 renal) of over 100 µM, a TGI (A498 renal) of over 100 µM and a TGI (A549 NSCLC) of over 100 µM. For the same molecule, the TGI (ACHN renal) was over 100 µM, the TGI (BT-549 breast) was over 100 µM and the TGI (CAKI-1 renal) was over 100 µM. For the same molecule, the TGI (CCRF-CEM leukemia) was over 100 µM, the TGI (COLO 205 colon) was over 100 µM and the TGI (DU-145 prostate) was over 100 µM. It also gave a TGI (EKVX NSCLC) of over 100 µM, a TGI (HCC-2998 colon) of over 100 µM and a TGI (HCT-116 colon) of over 100 µM. For the same molecule, the TGI (HCT-15 colon) was over 100 µM, the TGI (HOP-62 NSCLC) was over 100 µM and the TGI (HT29 colon) was over 100 µM. It also gave a TGI (K-562 leukemia) of over 100 µM, a TGI (KM12 colon) of over 100 µM and a TGI (M14 melanoma) of over 100 µM. It also gave a TGI (MALME-3M melanoma) of over 100 µM, a TGI (MCF7 breast) of over 100 µM and a TGI (MDA-MB-231 breast) of over 100 µM. It also gave a TGI (MDA-MB-435) of over 100 µM, a TGI (MDA-N) of over 100 µM and a TGI (MOLT-4 leukemia) of over 100 µM. The TGI (NCI-H226 lung) was over 100 µM, the TGI (NCI-H23 lung) was over 100 µM and the TGI (NCI-H460 lung) was over 100 µM. It also gave a TGI (NCI/ADR-RES ovarian) of over 100 µM, a TGI (OVCAR-3 ovarian) of over 100 µM and a TGI (OVCAR-4 ovarian) of over 100 µM. For the same molecule, the TGI (OVCAR-5 ovarian) was over 100 µM, the TGI (OVCAR-8 ovarian) was over 100 µM and the TGI (PC-3 prostate) was over 100 µM. For the same molecule, the TGI (RPMI-8226 leukemia) was over 100 µM, the TGI (RXF 393 renal) was over 100 µM and the TGI (SF-268 CNS) was over 100 µM. The TGI (SF-295 CNS) was over 100 µM, the TGI (SF-539 CNS) was over 100 µM and the TGI (SK-MEL-2 melanoma) was over 100 µM. It also gave a TGI (SK-MEL-28 melanoma) of over 100 µM, a TGI (SK-OV-3 ovarian) of over 100 µM and a TGI (SN12C renal) of over 100 µM. The TGI (SNB-19 CNS) was over 100 µM, the TGI (SNB-75 CNS) was over 100 µM and the TGI (SW-620 colon) was over 100 µM. It also gave a TGI (T-47D breast) of over 100 µM, a TGI (U251 CNS) of over 100 µM and a TGI (UACC-257 melanoma) of over 100 µM. The TGI (UACC-62 melanoma) was over 100 µM and the TGI (UO-31 renal) was over 100 µM.

Work on `C#CCCCC(=C)C[C@@H]1OC(=O)[C@H](C)[C@@H]1O` yielded a TGI (786-0 renal) of over 100 µM, a TGI (A498 renal) of over 100 µM and a TGI (A549 NSCLC) of over 100 µM. The TGI (ACHN renal) was over 100 µM, the TGI (CAKI-1 renal) was over 100 µM and the TGI (CCRF-CEM leukemia) was over 100 µM. It also gave a TGI (COLO 205 colon) of over 100 µM, a TGI (DU-145 prostate) of over 100 µM and a TGI (EKVX NSCLC) of over 100 µM. The TGI (HCC-2998 colon) was over 100 µM, the TGI (HCT-116 colon) was over 100 µM and the TGI (HCT-15 colon) was over 100 µM. It also gave a TGI (HL-60(TB) leukemia) of over 100 µM, a TGI (HOP-62 NSCLC) of over 100 µM and a TGI (HOP-92 NSCLC) of over 100 µM. It also gave a TGI (K-562 leukemia) of over 100 µM, a TGI (KM12 colon) of over 100 µM and a TGI (LOX IMVI melanoma) of over 100 µM. For the same molecule, the TGI (M14 melanoma) was over 100 µM, the TGI (MCF7 breast) was over 100 µM and the TGI (MDA-MB-435) was over 100 µM. The TGI (MDA-N) was over 100 µM, the TGI (MOLT-4 leukemia) was over 100 µM and the TGI (NCI-H23 lung) was over 100 µM. For the same molecule, the TGI (NCI-H460 lung) was over 100 µM, the TGI (NCI/ADR-RES ovarian) was over 100 µM and the TGI (OVCAR-3 ovarian) was over 100 µM. For the same molecule, the TGI (OVCAR-4 ovarian) was over 100 µM, the TGI (OVCAR-5 ovarian) was over 100 µM and the TGI (PC-3 prostate) was over 100 µM. For the same molecule, the TGI (RPMI-8226 leukemia) was over 100 µM, the TGI (RXF 393 renal) was over 100 µM and the TGI (SF-295 CNS) was over 100 µM. It also gave a TGI (SK-MEL-2 melanoma) of over 100 µM, a TGI (SK-MEL-28 melanoma) of over 100 µM and a TGI (SK-MEL-5 melanoma) of over 100 µM. For the same molecule, the TGI (SK-OV-3 ovarian) was over 100 µM, the TGI (SN12C renal) was over 100 µM and the TGI (SNB-19 CNS) was over 100 µM. It also gave a TGI (SNB-75 CNS) of over 100 µM, a TGI (SW-620 colon) of over 100 µM and a TGI (T-47D breast) of over 100 µM. The TGI (U251 CNS) was over 100 µM and the TGI (UO-31 renal) was over 100 µM.

`CC(C)=CCC/C(C)=C/CCC(C(=O)COCc1ccccc1)P1(=O)OC(C)(C)CN1C(C)(C)C` (stereo not given) gave a TGI (786-0 renal) of over 100 µM, a TGI (A549 NSCLC) of over 100 µM and a TGI (ACHN renal) of over 100 µM. For the same molecule, the TGI (BT-549 breast) was over 100 µM, the TGI (CAKI-1 renal) was over 100 µM and the TGI (CCRF-CEM leukemia) was 93.7 µM. For the same molecule, the TGI (COLO 205 colon) was over 100 µM, the TGI (DU-145 prostate) was over 100 µM and the TGI (EKVX NSCLC) was over 100 µM. It also gave a TGI (HCT-116 colon) of over 100 µM, a TGI (HCT-15 colon) of over 100 µM and a TGI (HOP-62 NSCLC) of over 100 µM. The TGI (HT29 colon) was over 100 µM, the TGI (IGROV1 ovarian) was over 100 µM and the TGI (K-562 leukemia) was 73.9 µM. The TGI (KM12 colon) was over 100 µM, the TGI (LOX IMVI melanoma) was over 100 µM and the TGI (M14 melanoma) was over 100 µM. For the same molecule, the TGI (MCF7 breast) was over 100 µM, the TGI (MDA-MB-231 breast) was over 100 µM and the TGI (MDA-MB-435) was over 100 µM. The TGI (MDA-N) was over 100 µM, the TGI (MOLT-4 leukemia) was 38.6 µM and the TGI (NCI-H226 lung) was over 100 µM. For the same molecule, the TGI (NCI-H23 lung) was over 100 µM, the TGI (NCI-H460 lung) was over 100 µM and the TGI (NCI-H522 lung) was over 100 µM. For the same molecule, the TGI (NCI/ADR-RES ovarian) was over 100 µM, the TGI (OVCAR-3 ovarian) was over 100 µM and the TGI (OVCAR-4 ovarian) was 81.2 µM. It also gave a TGI (OVCAR-5 ovarian) of over 100 µM, a TGI (PC-3 prostate) of over 100 µM and a TGI (RXF 393 renal) of over 100 µM. For the same molecule, the TGI (SF-268 CNS) was over 100 µM, the TGI (SF-295 CNS) was over 100 µM and the TGI (SF-539 CNS) was over 100 µM. It also gave a TGI (SK-MEL-2 melanoma) of over 100 µM, a TGI (SK-MEL-28 melanoma) of over 100 µM and a TGI (SK-MEL-5 melanoma) of over 100 µM. The TGI (SK-OV-3 ovarian) was over 100 µM, the TGI (SN12C renal) was over 100 µM and the TGI (SNB-19 CNS) was over 100 µM. For the same molecule, the TGI (SNB-75 CNS) was over 100 µM, the TGI (SR leukemia) was 46.5 µM and the TGI (SW-620 colon) was over 100 µM. For the same molecule, the TGI (T-47D breast) was over 100 µM, the TGI (TK-10 renal) was over 100 µM and the TGI (U251 CNS) was over 100 µM. The TGI (UACC-257 melanoma) was over 100 µM, the TGI (UACC-62 melanoma) was over 100 µM and the TGI (UO-31 renal) was over 100 µM.
